# Measured values taken from patent US10695589B1, “Method and kit for home controlled ovarian stimulation for in vitro fertilization” (priority 2019, dated 2020).
# Square brackets hold non-standard residues; d marks the D form. Peptide text beside a SMILES is read from it. d(hArg(Et2)) = CCN=C(NCC)NCCCC[C@@H](N)C(=O)O; hArg(Et2) = CCN=C(NCC)NCCCC[C@H](N)C(=O)O; dPhe(4-Cl) = N[C@H](Cc1ccc(Cl)cc1)C(=O)O; d2Nal = N[C@H](Cc1ccc2ccccc2c1)C(=O)O; d3Pal = N[C@H](Cc1cccnc1)C(=O)O
# Tests used:
# [1] = test system: Luteinizing hormone (LH) blood level; test: LH blood hormone level in patients on conventional GnRH antagonist protocol with Ganirelex/Cetrotide injectables (Example 1); assay type: in vivo, female patients
# Method: Five female patients were treated with a GnRH antagonist protocol requiring injections of medications.
# One patient, patient no. 1, was injected with 150 Units of FSH on days 3 to 12; half a syringe of 150 mcg/0.5 mL of ganirelix acetate on days 11 and 12; and 50 mg of clomiphene citrate on days 3 to 12; and 2.5 mg of letrozole on days 3 to 7. Luteinizing hormone (LH) blood level was 4.3 mIU/mL on day 10 and dropped to 2 mIU/mL on day 12.
# A second patient, patient no. 2, was injected with 75 Units of FSH on days 4 to 12 and 150 Units on day 13; half a syringe of 150 mcg/0.5 mL of ganirelix acetate on days 11 to 13; 50 mg of clomiphene citrate on days 10 to 12, and 2.5 mg of letrozole on days 3 to 7. Luteinizing hormone (LH) blood level was 12.0 mIU/mL on day 11 and dropped to 6.3 mIU/mL on day 13.
# Three patients, numbered 3 to 5, were injected with 75, 150 and 225 Units of FSH, respectively, on days 4 to 12 and one third a syringe of 150 mcg/0.5 mL of ganirelix acetate on days 11 to 13. Patient no. 3 received 50 mg of clomiphene citrate on days 4 to 12, and 2.5 mg of letrozole on days 4 to 8. Patient no. 4 received 100 mg of clomiphene citrate and 2.5 mg of letrozole on days 4 to 8, and 50 mg of clomiphene citrate on days 9 to 11. Patient no. 5 received no clomiphene citrate or letrozole. Luteinizing hormone (LH) blood level was 12.0, 18.0 and 14.6 mIU/mL, respectively, on day 10 and dropped to 4.9, 16.0 and 14.1 mIU/mL, respectively, on day 12.
# (§1) Table 2 below provides a comparison of the efficacy of conventional Ganirelex/Cetrotide injectables treatment for IVF in the five representative patients from Example 1 with the home controlled ovarian hyperstimulation method described herein in the five representative patients from Example 2.
# [2] = test system: Luteinizing hormone (LH) blood level; test: LH blood hormone level in patients on home controlled ovarian hyperstimulation method with vaginal elagolix (Example 2); assay type: in vivo, female patients
# Method: On day 9 of the menstrual cycle, the patient is directed to orally take 50 to 150 mg, preferably 100 mg, (one, two, or three 50 mg oral tablets) of clomiphene citrate and to either insert vaginally or take orally, depending on the patient's preference, a gonadotropin-releasing hormone (GnRH) antagonist such as elagolix (marketed as ORILISSA®), instead of the expensive injections of ganirelix acetate (GANIRELEX®) or cetrorelix acetate (marketed as CETROTIDE®) used routinely in conventional practices. A dose of 25 mg (⅛^th of a pill) up to 200 mg of elagolix (1 full pill), preferably 25 mg, will be used, with the dose being the same whether inserted vaginally or taken orally. Elagolix is a GnRH antagonist that is conventionally used in the treatment of pain associated with endometriosis in women, not for the treatment of infertility. By blocking the GnRH receptor, elagolix suppresses LH release by the pituitary gland and thus prevents LH surge. Ultimately, elagolix suppresses gonadal steroid production, thereby reducing circulating levels of sex hormones such as progesterone, estradiol, and testosterone. Elagolix is generally an oral medication (oral tablet), however in the present method, elagolix is a tablet taken mainly as a vaginal suppository, but may be taken orally based on the patient's preference. Additionally, the lowest and most preferred dose of elagolix (25 mg) that is used is one-eighth of the daily dosage conventionally administered for the treatment of endometriosis (e.g., 200 mg to 400 mg daily). […] Alternative GnRH receptor antagonists that can be used instead of elagolix include linzagolix and relugolix.
# Five female patients were treated with the controlled ovarian hyperstimulation method described herein using the elagolix pill (vaginal route) instead of the conventional Ganirelex/Cetrotide injectables. On day 3 of the patient's menstrual cycle, the patient orally took 100 mg (two 50 mg oral tablets) of clomiphene citrate and 5 mg (two 2.5 mg oral tablets) of letrozole. The patient then took the same oral dosages of clomiphene citrate and letrozole daily on each of days 4-7 of the patient's menstrual cycle. On day 8 of the patient's menstrual cycle, the patient orally took only 100 mg (two 50 mg oral tablets) of clomiphene citrate, and stopped the letrozole. On day 9 of the menstrual cycle, the patient orally took 100 mg (two 50 mg oral tablets) of clomiphene citrate and inserted vaginally a 50 mg tablet of elagolix as a vaginal suppository. On day 10 of the menstrual cycle, the patient orally took only 100 mg (two 50 mg oral tablets) of clomiphene citrate. On day 11 of the menstrual cycle, the patient orally took 100 mg (two 50 mg oral tablets) of clomiphene citrate and inserted vaginally a 50 mg tablet of elagolix as a vaginal suppository. Also, on day 11, the patient took a home ovulation test in the morning (9:00 am) and in the evening (9:00 pm). For the patients whose ovulation tests were not positive, then on days 12 and 13, the patient took 2 doses of leuprorelin as a nasal spray (1:40 dilution in saline) as follows. On day 12, after taking a home ovulation test at 9:00 am, 2 puffs (sprays) of the nasal spray were self-administered by the patient per nostril. After 12 hours of waiting, at 9:00 pm the patient took a home urine ovulation test and then self-administered 2 more puffs (sprays) of the nasal spray per nostril. On day 13, the patient repeated the procedure of day 12. Luteinizing hormone (LH) blood level was 7.0 mIU/mL on day 11 and dropped to 1.0 mIU/mL on day 13.
# as §1
# [3] = Example 2 patient 4, 50 mg elagolix vaginal suppository on days 9 and 11
# [4] = Example 2 patient 5, 50 mg elagolix vaginal suppository on days 9 and 11
smiles,measurement,setting,value
"CCN=C(NCC)NCCCC[C@H](NC(=O)[C@H](CC(C)C)NC(=O)[C@@H](CCCCNC(=NCC)NCC)NC(=O)[C@H](Cc1ccc(O)cc1)NC(=O)[C@H](CO)NC(=O)[C@@H](Cc1cccnc1)NC(=O)[C@@H](Cc1ccc(Cl)cc1)NC(=O)[C@@H](Cc1ccc2ccccc2c1)NC(C)=O)C(=O)N1CCC[C@H]1C(=O)N[C@H](C)C(N)=O [Ganirelex, ganirelix acetate] (Ac-[d2Nal][dPhe(4-Cl)][d3Pal]SY[d(hArg(Et2))]L[hArg(Et2)]P[dA]-NH2)",LH blood hormone level BEFORE medication intake,"[1]; Example 1 patient 1, day 10, half a syringe of 150 mcg/0.5 mL ganirelix acetate on days 11 and 12, FSH 150 Units days 3-12, clomiphene citrate 50 mg days 3-12, letrozole 2.5 mg days 3-7",4.3 mIU/mL
same,% Drop in blood LH hormone level,"[1]; Example 1 patient 1, day 10 to day 12",53.5%
same,% Drop in blood LH hormone level,"[1]; Example 1 patient 1, day 10 to day 12, listed as Conventional Ganielex/Cetrotide Injectables",53.5%
same,LH blood hormone level AFTER medication intake,"[1]; Example 1 patient 1, day 12, half a syringe ganirelix acetate on days 11 and 12",2 mIU/mL
same,LH blood hormone level AFTER medication intake,"[1]; Example 1 patient 1, day 12, half a syringe ganirelix acetate on days 11 and 12, listed as Conventional Ganielex/Cetrotide Injectables",2.0 mIU/mL
same,LH blood hormone level BEFORE medication intake,"[1]; Example 1 patient 2, day 11, half a syringe of 150 mcg/0.5 mL ganirelix acetate on days 11 to 13, FSH 75 Units days 4-12 and 150 Units day 13, clomiphene citrate 50 mg days 10-12, letrozole 2.5 mg days 3-7",12.0 mIU/mL
same,% Drop in blood LH hormone level,"[1]; Example 1 patient 2, day 11 to day 13",47.5%
same,% Drop in blood LH hormone level,"[1]; Example 1 patient 2, day 11 to day 13, listed as Conventional Ganielex/Cetrotide Injectables",47.5%
same,LH blood hormone level AFTER medication intake,"[1]; Example 1 patient 2, day 13, half a syringe ganirelix acetate on days 11 to 13",6.3 mIU/mL
same,LH blood hormone level BEFORE medication intake,"[1]; Example 1 patient 3, day 10, one third a syringe of 150 mcg/0.5 mL ganirelix acetate on days 11 to 13, FSH 75 Units days 4-12, clomiphene citrate 50 mg days 4-12, letrozole 2.5 mg days 4-8",12.0 mIU/mL
same,% Drop in blood LH hormone level,"[1]; Example 1 patient 3, day 10 to day 12",59.25%
same,% Drop in blood LH hormone level,"[1]; Example 1 patient 3, day 10 to day 12, listed as Conventional Ganielex/Cetrotide Injectables",59.2%
same,LH blood hormone level AFTER medication intake,"[1]; Example 1 patient 3, day 12, one third a syringe ganirelix acetate on days 11 to 13",4.9 mIU/mL
same,LH blood hormone level BEFORE medication intake,"[1]; Example 1 patient 4, day 10, one third a syringe of 150 mcg/0.5 mL ganirelix acetate on days 11 to 13, FSH 150 Units days 4-12, clomiphene citrate 100 mg and letrozole 2.5 mg days 4-8, clomiphene citrate 50 mg days 9-11",18.0 mIU/mL
same,% Drop in blood LH hormone level,"[1]; Example 1 patient 4, day 10 to day 12",11.1%
same,% Drop in blood LH hormone level,"[1]; Example 1 patient 4, day 10 to day 12, listed as Conventional Ganielex/Cetrotide Injectables",11.1%
same,LH blood hormone level AFTER medication intake,"[1]; Example 1 patient 4, day 12, one third a syringe ganirelix acetate on days 11 to 13",16.0 mIU/mL
same,LH blood hormone level BEFORE medication intake,"[1]; Example 1 patient 5, day 10, one third a syringe of 150 mcg/0.5 mL ganirelix acetate on days 11 to 13, FSH 225 Units days 4-12, no clomiphene citrate or letrozole",14.6 mIU/mL
same,% Drop in blood LH hormone level,"[1]; Example 1 patient 5, day 10 to day 12",3.4%
same,% Drop in blood LH hormone level,"[1]; Example 1 patient 5, day 10 to day 12, listed as Conventional Ganielex/Cetrotide Injectables",3.4%
same,LH blood hormone level AFTER medication intake,"[1]; Example 1 patient 5, day 12, one third a syringe ganirelix acetate on days 11 to 13",14.1 mIU/mL
COc1cccc(-c2c(C)n(Cc3c(F)cccc3C(F)(F)F)c(=O)n(C[C@H](NCCCC(=O)O)c3ccccc3)c2=O)c1F [elagolix],LH blood hormone level BEFORE medication intake,"[2]; Example 2 patient 1, day 11, 50 mg elagolix tablet as vaginal suppository on days 9 and 11, clomiphene citrate 100 mg days 3-11, letrozole 5 mg days 3-7",7.0 mIU/mL
same,LH blood hormone level AFTER medication intake,"[2]; Example 2 patient 1, day 13, 50 mg elagolix vaginal suppository on days 9 and 11",1.0 mIU/mL
same,LH blood hormone level AFTER medication intake,"[2]; Example 2 patient 2, 50 mg elagolix vaginal suppository on days 9 and 11",5.7 mIU/mL
same,LH blood hormone level AFTER medication intake,"[2]; Example 2 patient 3, 50 mg elagolix vaginal suppository on days 9 and 11",3.2 mIU/mL
same,LH blood hormone level AFTER medication intake,[2]; [3],1.7 mIU/mL
same,LH blood hormone level BEFORE medication intake,[2]; [3],8.2 mIU/mL
same,LH blood hormone level AFTER medication intake,[2]; [4],0.8 mIU/mL
same,LH blood hormone level BEFORE medication intake,[2]; [4],7 mIU/mL
same,GnRH antagonist effect in the patients,[2]; lower dose of elagolix taken as a vaginal suppository instead of orally,effective GnRH antagonist
